According to ChEMBL document CHEMBL4017441, “Mitigating the inhibition of human bile salt export pump by drugs: opportunities provided by physicochemical property modulation, in silico modeling, and structural modification” (Drug Metab Dispos, 2012):
pIC50: −log10 of the molar value. Structures can show the parent of a compound that is named as a salt.

These compounds were tested against Bile salt export pump (Homo sapiens, UniProt O95342).
Assay type: ADME

Compound	pIC50
NS(=O)(=O)c1cc2c(cc1C(F)(F)F)NC(Cc1ccccc1)NS2(=O)=O (configuration not stated) [BENDROFLUMETHIAZIDE]	4.16
C#C[C@]1(O)CC[C@H]2[C@@H]3CCc4cc(O)ccc4[C@H]3CC[C@@]21C [ETHINYL ESTRADIOL]	> 5.00
CO[C@H]1/C=C/O[C@@]2(C)Oc3c(C)c(O)c4c(O)c(c(/C=N/N5CCN(C)CC5)c(O)c4c3C2=O)NC(=O)/C(C)=C\C=C\[C@H](C)[C@H](O)[C@@H](C)[C@@H](O)[C@H](C)[C@H](OC(C)=O)[C@H]1C	> 5.00
O=C(O)c1c(Cl)c(Cl)c(Cl)c(Cl)c1-c1c2cc(I)c(=O)c(I)c-2oc2c(I)c(O)c(I)cc12 [ROSE BENGAL SODIUM]	> 5.00
CCC(COC(=O)c1cc(OC)c(OC)c(OC)c1)(c1ccccc1)N(C)C (configuration not stated) [TRIMEBUTINE]	> 5.00
c1ccc2[nH]c(-c3cscn3)nc2c1 [THIABENDAZOLE]	3.25
Bc1ccc(S(=O)(=O)N2CCN(C(=O)N3CCN(c4cc(C)ncn4)CC3)CC2)cc1	> 5.00
[H]/N=C(/N)N/C(=N/[H])NCCc1ccccc1 [PHENFORMIN]	< 3.00
O=C(NO)C(CCc1ccccc1)CS(=O)(=O)N1CCN(c2ccc(F)cc2)CC1 (configuration not stated)	> 5.00
CCOC(=O)[C@H](CCc1ccccc1)N[C@@H](C)C(=O)N1Cc2ccccc2C[C@H]1C(=O)O	4.81
CNC(=O)Oc1ccc2c(c1)C1(C)CCN(C)C1N2C (configuration not stated)	< 3.00
CN(C)CCC(c1ccccc1)c1ccccn1 (configuration not stated) [PHENIRAMINE MALEATE]	< 3.00
COC(=O)C1=C(C)NC(C)=C(C(=O)OC)C1c1ccccc1[N+](=O)[O-] [NIFEDIPINE]	4.73
O=C(O)c1ccc(OCCn2ccnc2)cc1 [DAZOXIBEN]	< 3.00
CN1CCN2c3ccccc3Cc3ccccc3C2C1 (configuration not stated) [MIANSERIN]	4.33
C[C@H]1O[C@@H](O[C@H]2[C@@H](O)C[C@H](O[C@H]3[C@@H](O)C[C@H](O[C@H]4CC[C@@]5(C)[C@H](CC[C@@H]6[C@@H]5CC[C@]5(C)[C@@H](C7=CC(=O)OC7)CC[C@]65O)C4)O[C@@H]3C)O[C@@H]2C)C[C@H](O)[C@@H]1O [DIGITOXIN]	> 5.00
N[C@H]1CCN(c2ccc3c(C(=O)NCC4CCCCC4)c(Cl)ccc3n2)C1	3.97
IVERMECTIN	> 5.00
CC[C@@H](Nc1c(Nc2cccc(C(=O)N(C)C)c2O)c(=O)c1=O)c1ccc(C)o1 [NAVARIXIN ANHYDROUS]	> 5.00
CN(C(=O)CN(CCO)CC(=O)N(C)C(C)(C)Cc1ccccc1)C(C)(C)Cc1ccccc1 [OXETHAZAINE]	> 5.00
CC(=O)NC[C@H]1CN(c2cc(F)c(C3=CCN(C(=O)CO)CC3)c(F)c2)C(=O)O1	< 3.00
NCCS [CYSTEAMINE]	3.48
COc1ccnc(-c2cccc(C)c2[S+]([O-])c2nc3ccccc3[nH]2)c1 (configuration not stated)	> 5.00

Compound	pIC50
CC(CN(C)C)CN1c2ccccc2Sc2ccccc21 (configuration not stated) [METHYLPROMAZINE]	4.13
CC[C@H]1OC(=O)[C@H](C)[C@H](O[C@H]2C[C@@](C)(OC)[C@@H](O)[C@H](C)O2)[C@H](C)[C@@H](O[C@@H]2O[C@H](C)C[C@H](N(C)C)[C@H]2O)[C@](C)(O)C[C@@H](C)CN(C)[C@H](C)[C@H](O)[C@]1(C)O	< 3.00
O=C(O)c1cc2cc(O)ccc2n1Cc1ccc(Cl)c(Cl)c1	4.30
CCN(CC)CCOC(=O)c1ccc(N)cc1 [PROCAINE]	< 3.00
O=CN(O)C(CCc1ccccn1)CS(=O)(=O)N1CCN(c2ccc(Cl)cn2)CC1 (configuration not stated)	> 5.00
CS(=O)(=O)CCNCc1ccc(-c2ccc3ncnc(Nc4ccc(OCc5cccc(F)c5)c(Cl)c4)c3c2)o1 [LAPATINIB]	> 5.00
NNc1nncc2ccccc12 [HYDRALAZINE]	< 3.00
CN(C)CCCN1c2ccccc2Sc2ccc(Cl)cc21 [CHLORPROMAZINE]	4.04
CNCCCC1c2ccccc2C=Cc2ccccc21 [PROTRIPTYLINE]	3.89
CC(=O)O[C@H]1C[C@@]2(C)[C@@H](C[C@@H](O)[C@H]3[C@@]4(C)CC[C@@H](O)[C@@H](C)[C@@H]4CC[C@@]32C)/C1=C(\CCC=C(C)C)C(=O)O [FUSIDATE SODIUM]	> 5.00
CCN(Cc1ccncc1)C(=O)C(CO)c1ccccc1 (configuration not stated) [TROPICAMIDE]	3.82
N[C@@H](CC(=O)N1CCn2c(nnc2C(F)(F)F)C1)Cc1cc(F)c(F)cc1F [SITAGLIPTIN]	3.83
CCS[C@]1(SC)CC[C@H]2[C@@H]3CCC4=CC(=O)C=C[C@]4(C)[C@@]3(F)[C@@H](O)C[C@@]21C	> 5.00
Cc1onc(-c2c(F)cccc2Cl)c1C(=O)N[C@@H]1C(=O)N2[C@@H]1SC(C)(C)[C@@H]2C(=O)O [FLOXACILLIN]	> 5.00
NCC1(CC(=O)O)CCCCC1 [GABAPENTIN]	< 3.00
CC(CCc1ccccc1)NCC(O)c1ccc(O)c(C(N)=O)c1 (configuration not stated) [LABETALOL]	3.19
CCC1(c2ccc(N)cc2)CCC(=O)NC1=O (configuration not stated) [AMINOGLUTETHIMIDE]	< 3.00
CCC1=C(C)CN(C(=O)NCCc2ccc(S(=O)(=O)NC(=O)N[C@H]3CC[C@H](C)CC3)cc2)C1=O [GLIMEPIRIDE]	> 5.00
Oc1ccc(CCNCCCCCCNCCc2ccccc2)cc1O [DOPEXAMINE]	< 3.00
COc1cc2c(Oc3ccc4[nH]c(C)cc4c3F)ncnc2cc1OCCCN1CCCCC1	4.64
COC(=O)N/N=C/c1c[n+]([O-])c2ccccc2[n+]1[O-] [CARBADOX]	< 3.03
Cn1c(=O)c2c(ncn2CC(O)CO)n(C)c1=O (configuration not stated) [DYPHYLLINE]	< 3.00
O=C(NC1CCN(CCc2c[nH]c3ccccc23)CC1)c1ccccc1 [INDORAMIN]	3.96

Compound	pIC50
Cc1nc2c3c(ccn2c1CO)CCC(c1ccccc1)O3 (configuration not stated)	> 5.00
CCOC(=O)c1cncn1[C@H](C)c1ccccc1 [ETOMIDATE]	4.21
O=C(/C=C/c1c(C(=O)O)[nH]c2cc(Cl)cc(Cl)c12)Nc1ccccc1	> 5.00
CC(=O)[C@@]1(O)CC[C@H]2[C@@H]3C[C@H](C)C4=CC(=O)C=C[C@]4(C)[C@@]3(F)[C@@H](O)C[C@@]21C [FLUOROMETHOLONE]	4.00
COc1ccc2cc([C@H](C)C(=O)O)ccc2c1 [NAPROXEN]	< 3.00
CN(C)C(=O)Oc1ccc[n+](C)c1 [PYRIDOSTIGMINE BROMIDE]	< 3.00
CC(=O)Nc1ccccc1 [ACETANILIDE]	< 3.00
CCCc1c(OCC(O)COc2ccc3c(=O)cc(C(=O)O)oc3c2CCC)ccc(C(C)=O)c1O (configuration not stated) [FPL-55712]	> 5.00
COc1ccc(CC(N)C(=O)N[C@@H]2[C@@H](CO)OC(n3cnc4c(N(C)C)ncnc43)[C@@H]2O)cc1 (some centres not stated)	< 3.10
COc1cc(C(=O)N2CCOCC2)cc(OC)c1OC [TRIMETOZINE]	< 3.00
c1ccc2c(CCC3CCNCC3)c[nH]c2c1 [INDALPINE]	< 3.00
C[C@](O)(C(=O)Nc1ccc(C(=O)c2ccccc2)cc1)C(F)(F)F [ZD-6169]	4.67
Cc1cccc(C)c1N=C1NCCCS1 [XYLAZINE]	< 3.00
Nc1nc2c(c(=O)[nH]1)N(C=O)C(CNc1ccc(C(=O)N[C@@H](CCC(=O)O)C(=O)O)cc1)CN2 (some centres not stated) [LEUCOVORIN]	< 3.00
S=P(N1CC1)(N1CC1)N1CC1 [THIOTEPA]	< 3.00
CCN(CC)C(C)CN1c2ccccc2Sc2ccccc21 (configuration not stated) [ETHOPROPAZINE]	3.86
CCc1cc(C(N)=S)ccn1 [ETHIONAMIDE]	< 3.00
CN1CCC(OC(c2ccccc2)c2ccccc2)CC1	3.29
CC(C)(Sc1cc(C(C)(C)C)c(O)c(C(C)(C)C)c1)Sc1cc(C(C)(C)C)c(O)c(C(C)(C)C)c1 [PROBUCOL]	< 3.00
Cc1c(C)c2c(c(C)c1O)CCC(C)(COc1ccc(CC3SC(=O)NC3=O)cc1)O2 (configuration not stated) [TROGLITAZONE]	5.16
CS(=O)(=O)c1ccc(C2=C(c3ccccc3)C(=O)OC2)cc1 [ROFECOXIB]	4.02
O=C(CCCCC(=O)Nc1c(I)cc(I)c(C(=O)O)c1I)Nc1c(I)cc(I)c(C(=O)O)c1I	< 3.01
CC[C@@H](CO)NC(=O)[C@@H]1C=C2c3cccc4c3c(cn4C)C[C@H]2N(C)C1 [METHYSERGIDE]	4.48

Compound	pIC50
CCCCC(=O)N(Cc1ccc(-c2ccccc2-c2nnn[nH]2)cc1)[C@H](C(=O)O)C(C)C	4.51
COC(=O)[C@@H]1[C@H]2C[C@H]3c4[nH]c5ccccc5c4CCN3C[C@@H]2CC[C@@H]1O [YOHIMBINE]	3.60
CN1CCc2cccc3c2[C@H]1Cc1ccc(O)c(O)c1-3 (stereo in doubt; form 1) [APOMORPHINE]	3.67
Nc1nc(NCCN2CCOCC2)nc2nc(-c3ccco3)nn12	< 3.00
Cc1oncc1C(=O)Nc1ccc(C(F)(F)F)cc1 [LEFLUNOMIDE]	3.96
NC(CO)C(=O)NNCc1ccc(O)c(O)c1O (configuration not stated) [BENSERAZIDE]	3.93
CCCCOC(=O)c1ccc(N)cc1 [BUTAMBEN]	3.74
N[C@@H](Cc1ccc(N(CCCl)CCCl)cc1)C(=O)O	4.03
Cc1ccc(Cl)c(Nc2ccccc2C(=O)O)c1Cl [MECLOFENAMIC ACID]	4.56
O=C(NCCc1ccccc1Cl)c1cc(-n2ncc(=O)[nH]c2=O)ccc1Cl	4.46
CCN1CCN(C(=O)N[C@@H](C(=O)N[C@@H]2C(=O)N3[C@@H]2SC(C)(C)[C@@H]3C(=O)O)c2ccccc2)C(=O)C1=O [PIPERACILLIN]	3.70
CCCc1c2nc(C(=O)O)cc(NC)c2cc2c(=O)cc(C(=O)O)oc12 [MINOCROMIL]	< 3.00
O=c1[nH]c(=O)n([C@H]2C[C@H](O)[C@@H](CO)O2)cc1C(F)(F)F [TRIFLURIDINE]	< 3.00
N[C@@H]1C[C@H]1c1ccccc1.N[C@H]1C[C@@H]1c1ccccc1 [TRANYLCYPROMINE]	< 3.00
COc1cc(C(=O)NCCCCCC(=O)O)cc(OC)c1OC [CAPOBENIC ACID]	< 3.00
COc1ccccc1N1CCN(CC(O)COc2cccc3ccccc23)CC1 (configuration not stated) [NAFTOPIDIL]	> 5.00
CCCC(=O)c1cnc2c(OCC[S+](C)[O-])cccc2c1Nc1ccc(F)cc1C (configuration not stated)	> 5.00
Cc1ccc(C(=O)N2CC3CNCC(C2)O3)cc1NC(=O)CC12CC3CC(CC(C3)C1)C2	4.23
CC(C)(C)NCC(O)c1ccccc1Cl (configuration not stated) [TULOBUTEROL]	< 3.00
CNCC(O)c1cccc(O)c1 (configuration not stated)	< 3.00
Cc1ccc2c(c1)c(-c1ccnc3c(C)cccc13)c(C)n2CC(=O)O	> 5.00
OCCN1CCN(CCCN2c3ccccc3Sc3ccc(Cl)cc32)CC1 [PERPHENAZINE]	4.46
Cc1cc(Nc2nc(NCc3cc(-c4ccccn4)no3)ncc2Cl)[nH]n1	> 5.00
